# Reference: patent publication US8816095B2, “Na channels, disease, and related assays and compositions” (Georgetown University, priority 2008, dated 2014)
# Experiments:
# hNav1.7 = target: T1, hNav1.7 (Homo sapiens, UniProt Q15858); assay: Fluorescent (FRET) based sodium channel assay, hNav1.7; type: cell-based; settings: HEK293 stably transfected with hNav1.7, 20 μM veratridine, read-out: hNav 1.7 IC50
# T1 construct: expressed in transfected cells; host or cells: HEK293
# Procedure: Two isoforms of the channel were examined: hNav1.5, a cardiac sodium channel associated with arrhythmias, and hNav1.7, an isoform found in the peripheral nervous system.
# HEK293 cells stably transfected with either hNav1.5 or hNav1.7 were plated at approximately 11,000-20,000 cells/well in flat bottom, poly-D-lysine coated black-wall, clear-bottom, 384-well plates (Becton Dickinson, Bedford, Mass.), and incubated overnight at 37° C. in a 10% CO2 atmosphere in growth medium. Cells were washed with 0.03 mL of Dulbecco's phosphate buffered saline (D-PBS) containing calcium and magnesium. Cells were then incubated with 0.025 mL of a solution containing 10 μM CC2-DMPE and 0.02% pluronic acid in D-PBS with calcium and magnesium; supplemented with 10 mM glucose, and 10 mM Hepes-NaOH, pH 7.4. […] Afterwards, cells were incubated in the dark at 25° C. for 45 min with 0.025 mL of a solution containing 5 μM DiSBAC2(3) in VIPR-S, in the absence or presence of test compound. At the end of the incubation period, the plate was placed in a FLIPR TETRA instrument (MDS Analytical Technologies, Sunnyvale Calif.), illuminated at 390-420 nm, and fluorescence emissions were recorded at approximately 1 Hz at 460 and 580 nm. Following a 7 second baseline reading, 0.025 mL of VIPR-S containing 10 μM veratridine for Nav1.5 or 20 μM veratridine for Nav1.7 was added to each well, and the emissions of both dyes were recorded for an additional 33 seconds. The change in fluorescence resonance energy transfer (FRET) ratio (F/F0) was calculated as: F/F0=((A460/A580/(I460/I580) where A and I represent the readings after or before addition of veratridine, respectively, at the indicated wavelengths. For I, the readings from 2-5 seconds were averaged, and for A, readings from 3 seconds after the signal had reached a plateau level (usually within 30-40 s) were also averaged. Triplicate measurements were performed for each experimental condition and the data were averaged.
# neuronal VGSCs = settings: read-out: inactivated state-dependent blocking activity IC50 in neuronal VGSCs; cited from earlier work
# PC-3 cells [1] = assay: PC-3 MTT cell viability assay; type: cell-based; settings: Homo sapiens, read-out: GI50 ± SEM (10 μM), DPH and JDA-3-135 previously determined
# Text: Following the determination that compound CDPNS inhibits the VGSCs that are present in androgen independent PC-3 cells, a 3-(4,5-Dimethylthiazol-2-yl)-2,5-diphenyltetrazolium bromide (MTT) cell viability assay was utilized to measure the ability of compound CDPNS to inhibit PC-3 cell growth via VGSC blockade. In this experiment data yielded from CDPNS was compared to previously determined DPH and JDA-3-135 antiproliferation data (Table 10).
# [2] = tested on: Na+ channel site 2 binding site; assay: [3H]-BTX assay, rat forebrain membranes; settings: ± S.E.M., n in brackets
# Procedure: In order to determine if the hermitamides bind to the sodium channel, the natural products, their enantiomers, and the racemic mixture were tested for their ability to displace [^3H]-batrachatoxin. Batrachatoxin is a lipid-soluble neurotoxin that binds to site 2 of the sodium channel. This site is known to overlap with the local anesthetic binding […]. Ligands known to bind to […] of the sodium channel include anesthetics, anticonvulsants and antiarrthymics. As a control, phenyloin, a clinically-used sodium channel blocker that is known to displace [^3H]BTX was also included.
# The assays were run at 10 μM and recorded as percent displacement of BTX.
# Briefly, rat forebrain membranes (10 mg tissue/well) were incubated with [^3H]-BTX (30-60 Ci/mmol). […] The reaction was terminated by rapid vacuum filtration of the reaction contents onto glass fiber filters. Radioactivity trapped onto the filters was determined and compared with control values to ascertain any interactions of the test compound with the Na^+ channel site 2 binding site. Aconitine (1 μM) was used as a positive control (Sigma Aldrich, Inc., St. Louis, Mo.).
# [3] = Incidence of prostate cancer in epileptic men treated with sodium channel blockers; parameters: species or system human; settings: 1427 epileptic men given drug vs 14270 control, 1994 to 2003
# Text: The incidence of prostate cancer in epileptic men treated with sodium channel blockers was studied from 1994 to 2003. In the study, 1427 epileptic men were given phenyloin as a sodium channel blocker while 14270 epileptic men were not given a sodium channel blocker (control).
# PC-3 cells [4] = assay: PC-3 cell growth inhibition assay (WST-8); type: cell-based; settings: Homo sapiens, WST-8, 48 hours
# Procedure: The effect of compound 2 was studied on the proliferation of human androgen independent prostate cancer (PC-3) cells, using a cell viability assay with WST-8. […].
# PC-3 cells were added to the wells of a 96 well plate at 7500 cells per well in 100 uL of RPMI medium with 10% serum and allowed to plate down overnight. The medium was then removed and replaced with serum free medium containing the appropriate concentration of drug. DMSO concentration was kept below 1%. At this time WST-8 cell counting reagent was added to the control (T=0) wells and allowed to incubate for 2 hours and the absorbance was read at 450 nm to determine the starting number of cells per well. The plates were incubated for 48 hours, the medium was removed and the wells were washed with 100 uL of PBS. The PBS was removed that the wells were filled with 110 uL of serum free RPMI media containing the WST-8 reagent. After two hours of incubation, the plates absorbance was read at 450 nm and normalized to the control value.
# T1 sequence (Q15858 whole entry): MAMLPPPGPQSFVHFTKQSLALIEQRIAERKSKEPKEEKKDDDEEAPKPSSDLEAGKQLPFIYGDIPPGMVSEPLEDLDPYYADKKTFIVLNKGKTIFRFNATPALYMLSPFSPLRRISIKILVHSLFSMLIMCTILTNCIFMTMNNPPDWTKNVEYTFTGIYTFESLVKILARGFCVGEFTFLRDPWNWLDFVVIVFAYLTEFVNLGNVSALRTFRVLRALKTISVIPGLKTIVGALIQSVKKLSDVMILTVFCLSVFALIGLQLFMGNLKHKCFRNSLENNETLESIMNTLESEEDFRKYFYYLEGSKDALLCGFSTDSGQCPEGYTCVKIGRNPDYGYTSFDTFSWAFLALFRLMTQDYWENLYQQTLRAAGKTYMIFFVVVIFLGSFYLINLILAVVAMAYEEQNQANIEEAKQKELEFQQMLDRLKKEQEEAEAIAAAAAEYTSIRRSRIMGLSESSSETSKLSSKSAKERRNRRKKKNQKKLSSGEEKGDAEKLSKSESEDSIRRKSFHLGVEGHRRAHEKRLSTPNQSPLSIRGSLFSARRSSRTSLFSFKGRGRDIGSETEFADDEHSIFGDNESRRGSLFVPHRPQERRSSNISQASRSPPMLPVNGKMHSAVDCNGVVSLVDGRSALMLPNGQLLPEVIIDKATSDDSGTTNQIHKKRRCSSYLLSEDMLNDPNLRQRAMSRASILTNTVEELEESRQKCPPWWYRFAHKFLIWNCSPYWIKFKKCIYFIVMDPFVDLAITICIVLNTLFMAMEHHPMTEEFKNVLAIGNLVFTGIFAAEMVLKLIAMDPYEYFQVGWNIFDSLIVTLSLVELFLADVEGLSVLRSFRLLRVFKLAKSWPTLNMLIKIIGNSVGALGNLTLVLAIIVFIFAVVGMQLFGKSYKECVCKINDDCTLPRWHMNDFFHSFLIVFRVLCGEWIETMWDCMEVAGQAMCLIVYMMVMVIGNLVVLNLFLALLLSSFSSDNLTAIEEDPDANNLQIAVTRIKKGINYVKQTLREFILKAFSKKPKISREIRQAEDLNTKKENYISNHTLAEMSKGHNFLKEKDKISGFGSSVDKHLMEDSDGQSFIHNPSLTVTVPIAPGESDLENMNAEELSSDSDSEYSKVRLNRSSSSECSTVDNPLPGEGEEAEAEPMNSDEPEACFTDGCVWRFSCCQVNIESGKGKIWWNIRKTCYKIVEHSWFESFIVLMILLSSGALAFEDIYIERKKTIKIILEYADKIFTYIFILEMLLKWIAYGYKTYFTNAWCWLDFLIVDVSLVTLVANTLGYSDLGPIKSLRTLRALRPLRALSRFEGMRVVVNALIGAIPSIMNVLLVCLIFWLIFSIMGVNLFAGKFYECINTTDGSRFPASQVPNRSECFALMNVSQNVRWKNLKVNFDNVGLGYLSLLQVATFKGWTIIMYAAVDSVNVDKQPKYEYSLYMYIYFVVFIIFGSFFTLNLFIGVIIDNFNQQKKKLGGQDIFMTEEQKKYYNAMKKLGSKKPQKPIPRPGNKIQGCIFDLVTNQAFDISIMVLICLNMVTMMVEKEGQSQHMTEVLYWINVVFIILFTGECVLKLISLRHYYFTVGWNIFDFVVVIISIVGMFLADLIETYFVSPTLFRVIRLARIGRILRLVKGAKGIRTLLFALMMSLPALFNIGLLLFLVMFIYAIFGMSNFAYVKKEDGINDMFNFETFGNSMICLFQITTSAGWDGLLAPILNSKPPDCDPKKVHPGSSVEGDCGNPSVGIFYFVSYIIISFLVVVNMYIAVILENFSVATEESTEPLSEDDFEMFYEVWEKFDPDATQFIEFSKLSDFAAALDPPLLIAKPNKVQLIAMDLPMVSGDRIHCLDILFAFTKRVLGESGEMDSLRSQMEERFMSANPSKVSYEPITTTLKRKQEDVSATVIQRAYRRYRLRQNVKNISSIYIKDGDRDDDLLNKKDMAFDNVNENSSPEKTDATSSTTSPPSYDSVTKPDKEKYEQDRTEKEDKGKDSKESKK
smiles,measurement,setting,value
"O=C1NC(=O)C(c2ccccc2)(c2ccccc2)N1 [DPH, Diphenylhydantoin, reference compound]",IC50,hNav1.7,> 100 µM
same,IC50,neuronal VGSCs,40 µM
same,GI50,PC-3 cells [1],> 100 µM
same,% [3H]-BTX Displacement At 10 μM,[2],19.78 ± 1.21 (2) %
same,less likely to be diagnosed with prostate cancer,[3],40%
same,GI50,PC-3 cells [4]; read-out: GI50 in PC3 prostate cancer cells,> 100 µM
same,GI50,PC-3 cells [4]; read-out: PC3 GI50 (μg),> 100 µM
